Tests used:
Assay in all cases: relative viability (nuclei count vs DMSO), 5 days (fraction); higher = more cells survive
201T = system: 201T
In short: (§1)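 One day after seeding in 1536-well plates, lung cancer cell lines were dosed by pin tool. Dosing was either single-drug or a fixed anchor-drug dose plus five library-drug doses (not always all listed) in √10 steps. After 5 days, nuclei were stained in one fix-and-stain step and counted on 4× images, and relative viability is the nuclei count of treated wells over that of vehicle wells, given as the median of duplicate plates.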

BEN = system: BEN
In short: as §1

CAL-12T = system: CAL-12T
In short: as §1

HCC-78 = system: HCC-78
In short: as §1

HOP-62 = system: HOP-62
In short: as §1

LCLC-97TM1 = system: LCLC-97TM1
In short: as §1

LOU-NH91 = system: LOU-NH91
In short: as §1

NCI-H1355 = system: NCI-H1355
In short: as §1

NCI-H1395 = system: NCI-H1395
In short: as §1

NCI-H1651 = system: NCI-H1651
In short: as §1

NCI-H1793 = system: NCI-H1793
In short: as §1

NCI-H1915 = system: NCI-H1915
In short: as §1

NCI-H1944 = system: NCI-H1944
In short: as §1

NCI-H2126 = system: NCI-H2126
In short: as §1

NCI-H2347 = system: NCI-H2347
In short: as §1

NCI-H3122 = system: NCI-H3122
In short: as §1

NCI-H322M = system: NCI-H322M
In short: as §1

NCI-H441 = system: NCI-H441
In short: as §1

NCI-H650 = system: NCI-H650
In short: as §1

NCI-H838 = system: NCI-H838
In short: as §1

SK-LU-1 = system: SK-LU-1
In short: as §1

SW 1573 = system: SW 1573
In short: as §1

## Cc1cn(-c2cc(NC(=O)c3ccc(C)c(Nc4nccc(-c5cccnc5)n4)c3)cc(C(F)(F)F)c2)cn1 [Nilotinib] + O=C(CCCCCCC(=O)Nc1ccccc1)NO [Vorinostat] (partner 1 µM)
201T; first compound 0.001 µM
  relative viability: 0.931
201T; first compound 0.003162 µM
  relative viability: 1.19
201T; first compound 0.01 µM
  relative viability: 1.22
201T; first compound 0.1 µM
  relative viability: 0.28
BEN; first compound 0.001 µM
  relative viability: 0.532
BEN; first compound 0.003162 µM
  relative viability: 0.556
BEN; first compound 0.01 µM
  relative viability: 0.723
BEN; first compound 0.03162 µM
  relative viability: 0.642
BEN; first compound 0.1 µM
  relative viability: 0.574
CAL-12T; first compound 0.001 µM
  relative viability: 0.673
CAL-12T; first compound 0.003162 µM
  relative viability: 0.704
CAL-12T; first compound 0.01 µM
  relative viability: 0.994
CAL-12T; first compound 0.03162 µM
  relative viability: 0.573
CAL-12T; first compound 0.1 µM
  relative viability: 0.566
HCC-78; first compound 0.001 µM
  relative viability: 0.483
HCC-78; first compound 0.003162 µM
  relative viability: 0.512
HCC-78; first compound 0.01 µM
  relative viability: 0.553
HCC-78; first compound 0.03162 µM
  relative viability: 0.4
HCC-78; first compound 0.1 µM
  relative viability: 0.565
HOP-62; first compound 0.001 µM
  relative viability: 0.625
HOP-62; first compound 0.003162 µM
  relative viability: 0.567
HOP-62; first compound 0.01 µM
  relative viability: 0.631
HOP-62; first compound 0.03162 µM
  relative viability: 0.479
LCLC-97TM1; first compound 0.001 µM
  relative viability: 0.605
LCLC-97TM1; first compound 0.003162 µM
  relative viability: 0.891
LCLC-97TM1; first compound 0.01 µM
  relative viability: 0.964
LCLC-97TM1; first compound 0.03162 µM
  relative viability: 0.515
LCLC-97TM1; first compound 0.1 µM
  relative viability: 0.102
LOU-NH91; first compound 0.001 µM
  relative viability: 1.03
LOU-NH91; first compound 0.003162 µM
  relative viability: 0.936
LOU-NH91; first compound 0.01 µM
  relative viability: 0.946
LOU-NH91; first compound 0.03162 µM
  relative viability: 0.898
LOU-NH91; first compound 0.1 µM
  relative viability: 0.882
NCI-H1355; first compound 0.001 µM
  relative viability: 0.6
NCI-H1355; first compound 0.003162 µM
  relative viability: 0.695
NCI-H1355; first compound 0.01 µM
  relative viability: 0.67
NCI-H1355; first compound 0.03162 µM
  relative viability: 0.59
NCI-H1355; first compound 0.1 µM
  relative viability: 0.335
NCI-H1395; first compound 0.001 µM
  relative viability: 0.728
NCI-H1395; first compound 0.01 µM
  relative viability: 0.616
NCI-H1395; first compound 0.03162 µM
  relative viability: 0.59
NCI-H1395; first compound 0.1 µM
  relative viability: 0.473
NCI-H1651; first compound 0.001 µM
  relative viability: 0.531
NCI-H1651; first compound 0.003162 µM
  relative viability: 0.612
NCI-H1651; first compound 0.01 µM
  relative viability: 0.602
NCI-H1651; first compound 0.03162 µM
  relative viability: 0.528
NCI-H1651; first compound 0.1 µM
  relative viability: 0.418
NCI-H1793; first compound 0.001 µM
  relative viability: 0.64
NCI-H1793; first compound 0.003162 µM
  relative viability: 0.841
NCI-H1793; first compound 0.01 µM
  relative viability: 0.688
NCI-H1793; first compound 0.03162 µM
  relative viability: 0.386
NCI-H1793; first compound 0.1 µM
  relative viability: 0.257
NCI-H1915; first compound 0.001 µM
  relative viability: 0.454
NCI-H1915; first compound 0.003162 µM
  relative viability: 0.488
NCI-H1915; first compound 0.01 µM
  relative viability: 0.501
NCI-H1915; first compound 0.03162 µM
  relative viability: 0.385
NCI-H1915; first compound 0.1 µM
  relative viability: 0.299
NCI-H1944; first compound 0.001 µM
  relative viability: 0.558
NCI-H1944; first compound 0.003162 µM
  relative viability: 0.795
NCI-H1944; first compound 0.01 µM
  relative viability: 0.671
NCI-H1944; first compound 0.03162 µM
  relative viability: 0.481
NCI-H1944; first compound 0.1 µM
  relative viability: 0.457
NCI-H2126; first compound 0.001 µM
  relative viability: 0.754
NCI-H2126; first compound 0.003162 µM
  relative viability: 0.888
NCI-H2126; first compound 0.01 µM
  relative viability: 0.864
NCI-H2126; first compound 0.03162 µM
  relative viability: 0.764
NCI-H2126; first compound 0.1 µM
  relative viability: 0.476
NCI-H2347; first compound 0.001 µM
  relative viability: 0.601
NCI-H2347; first compound 0.003162 µM
  relative viability: 0.516
NCI-H2347; first compound 0.01 µM
  relative viability: 0.712
NCI-H2347; first compound 0.03162 µM
  relative viability: 0.495
NCI-H2347; first compound 0.1 µM
  relative viability: 0.431
NCI-H3122; first compound 0.001 µM
  relative viability: 0.85
NCI-H3122; first compound 0.003162 µM
  relative viability: 1.47
NCI-H3122; first compound 0.01 µM
  relative viability: 1.07
NCI-H3122; first compound 0.03162 µM
  relative viability: 0.89
NCI-H3122; first compound 0.1 µM
  relative viability: 0.851
NCI-H322M; first compound 0.001 µM
  relative viability: 0.896
NCI-H322M; first compound 0.003162 µM
  relative viability: 0.68
NCI-H322M; first compound 0.01 µM
  relative viability: 0.962
NCI-H322M; first compound 0.03162 µM
  relative viability: 0.848
NCI-H322M; first compound 0.1 µM
  relative viability: 0.913
NCI-H441; first compound 0.001 µM
  relative viability: 0.544
NCI-H441; first compound 0.003162 µM
  relative viability: 1.02
NCI-H441; first compound 0.01 µM
  relative viability: 0.742
NCI-H441; first compound 0.03162 µM
  relative viability: 0.532
NCI-H441; first compound 0.1 µM
  relative viability: 0.71
NCI-H650; first compound 0.001 µM
  relative viability: 0.392
NCI-H650; first compound 0.003162 µM
  relative viability: 0.437
NCI-H650; first compound 0.01 µM
  relative viability: 0.445
NCI-H650; first compound 0.03162 µM
  relative viability: 0.407
NCI-H650; first compound 0.1 µM
  relative viability: 0.377
NCI-H838; first compound 0.001 µM
  relative viability: 0.693
NCI-H838; first compound 0.003162 µM
  relative viability: 0.783
NCI-H838; first compound 0.01 µM
  relative viability: 0.753
NCI-H838; first compound 0.03162 µM
  relative viability: 0.726
NCI-H838; first compound 0.1 µM
  relative viability: 0.688
SK-LU-1; first compound 0.001 µM
  relative viability: 0.628
SK-LU-1; first compound 0.003162 µM
  relative viability: 0.756
SK-LU-1; first compound 0.01 µM
  relative viability: 0.865
SK-LU-1; first compound 0.03162 µM
  relative viability: 0.632
SK-LU-1; first compound 0.1 µM
  relative viability: 0.692
SW 1573; first compound 0.001 µM
  relative viability: 0.527
SW 1573; first compound 0.003162 µM
  relative viability: 0.849
SW 1573; first compound 0.01 µM
  relative viability: 0.977
SW 1573; first compound 0.03162 µM
  relative viability: 0.438
SW 1573; first compound 0.1 µM
  relative viability: 0.222

From the supplement of paper PMC10307832
